{"source": "patent EP2396329B1", "about": "“COMPOUNDS FOR THE TREATMENT OF HEPATITIS C” (priority 2009, dated 2010)", "key": {"HCV replicon": {"system": "HCV replicon", "experiment": "HCV replicon assay (FRET or luciferase readout)", "format": "cell-based", "details": "Hepatitis C virus; HCV replicon cells; FRET or luciferase activity; read-out: EC50", "description": "FRET Assay Preparation. To perform the HCV FRET screening assay, 96-well cell culture plates were used. The FRET peptide (Anaspec, Inc.) (Taliani et al., Anal. Biochem. 1996, 240, 60-67) contains a fluorescence donor, EDANS, near one end of the peptide and an acceptor, DABCYL, near the other end. The fluorescence of the peptide is quenched by […] resonance energy transfer (RET) between the donor and the acceptor, but as the NS3 protease cleaves the peptide the products are released from RET quenching and the fluorescence of the donor becomes apparent. The assay reagent was made as follows: 5X cell Luciferase cell culture lysis reagent from Promega (#E153A) diluted to 1X with dH2O, NaCl added to 150 mM final, the FRET peptide diluted to 20 µM final from a 2 mM stock.\nTo prepare plates, HCV replicon cells, with or without a Renilla luciferase reporter gene, were trypsinized and placed into each well of a 96-well plate with titrated test compounds added in columns 3 through 12; columns 1 and 2 contained a control compound (HCV protease inhibitor), and the bottom row contained cells without compound. The plates were then placed in a CO2 incubator at 37 °C.\nAssays. Subsequent to addition of the test compounds described above (FRET Assay Preparation), at various times the plate was removed and Alamar blue solution (Trek Diagnostics, #00-100) was added per well as a measure of cellular toxicity. After reading in a Cytoflour 4000 instrument (PE Biosystems), plates were rinsed with PBS and then used for FRET assay by the addition of 30 ul of the FRET peptide assay reagent described above (FRET Assay Preparation) per well. The plate was then placed into the Cytoflour 4000 instrument which had been set to 340 excite/490 emission, automatic mode for 20 cycles and the plate read in a kinetic mode. Typically, the signal to noise using an endpoint analysis after the reads was at least three-fold. Alternatively, after Alamar blue reading, plates were rinsed with PBS, 50 ul of DMEM (high glucose) without phenol red was added and plates were then used for luciferase assay using the Promega Dual-Glo Luciferase Assay System.\nCompound analysis was determined by quantification of the relative HCV replicon inhibition and the relative cytotoxicity values. To calculate cytoxicity values, the average Alamar Blue fluorescence signals from the control wells were set as 100% non-toxic. The individual signals in each of the compound test wells were then divided by the average control signal and multiplied by 100% to determine […]. To calculate the HCV replicon inhibition values, an average background value was obtained from the two wells containing the highest amount of HCV protease inhibitor at the end of the assay period. These numbers were similar to those obtained from naïve Huh-7 cells.\nThe background numbers were then subtracted from the average signal obtained from the control wells and this number was used as 100% activity. The individual signals in each of the compound test wells were then divided by the averaged control values after background subtraction and multiplied by 100% to determine percent activity. EC50 values for a protease inhibitor titration were calculated as the concentration which caused a 50% reduction in FRET or luciferase activity. The two numbers generated for the compound plate, percent cytoxicity and percent activity were used to determine compounds of interest for further analysis."}, "HCV NS5B": {"target": "T1, HCV NS5B (Hepatitis C virus genotype 1b, UniProt Q9WMX2)", "T1 construct": "The protein was expressed with an 18 amino acid C-terminal truncation to enhance the solubility; made in house; host or cells: E. coli BL21(DE3)", "T1 sequence (Q9WMX2 2420-2992)": "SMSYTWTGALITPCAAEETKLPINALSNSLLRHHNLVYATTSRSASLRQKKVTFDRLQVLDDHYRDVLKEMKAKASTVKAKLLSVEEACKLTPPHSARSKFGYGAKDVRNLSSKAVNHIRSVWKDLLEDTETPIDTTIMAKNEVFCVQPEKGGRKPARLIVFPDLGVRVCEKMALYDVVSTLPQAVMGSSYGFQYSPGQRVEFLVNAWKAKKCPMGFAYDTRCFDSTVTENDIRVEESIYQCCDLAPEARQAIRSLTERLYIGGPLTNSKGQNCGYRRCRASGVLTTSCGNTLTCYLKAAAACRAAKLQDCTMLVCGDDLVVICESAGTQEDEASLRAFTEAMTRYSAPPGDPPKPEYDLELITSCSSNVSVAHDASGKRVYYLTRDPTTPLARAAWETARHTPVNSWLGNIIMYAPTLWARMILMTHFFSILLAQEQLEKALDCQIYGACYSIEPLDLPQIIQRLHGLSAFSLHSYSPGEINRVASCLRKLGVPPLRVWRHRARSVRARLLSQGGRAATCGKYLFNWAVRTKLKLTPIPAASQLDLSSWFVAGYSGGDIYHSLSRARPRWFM", "experiment": "HCV NS5B RdRp enzyme assay (standard or modified)", "format": "biochemical", "details": "HCV NS5B RdRp enzyme, genotype 1b; read-out: IC50", "protocol": "HCV NS5B RdRp cloning, expression, and purification. The cDNA encoding the NS5B protein of HCV, genotype 1b, was cloned into the pET21a expression vector. The protein was expressed with an 18 amino acid C-terminal truncation to enhance the solubility. The E. coli competent cell line BL21(DE3) was used for expression of the protein. Cultures were grown at 37 °C for ~ 4 hours until the cultures reached an optical density of 2.0 at 600 nm. The cultures were cooled to 20 °C and induced with I mM IPTG. Fresh ampicillin was added to a final concentration of 50 µg/ml and the cells were grown overnight at 20 °C.\nCell pellets (3L) were lysed for purification to yield 15-24 mgs of purified NS5B. The lysis buffer consisted of 20 mM Tris-HCl, pH 7.4, 500 mM NaCl, 0.5% triton X-100, 1 mM DTT, 1mM EDTA, 20% glycerol, 0.5 mg/ml lysozyme, 10 mM MgCl2, 15 ug/ml deoxyribonuclease I, and Complete TM protease inhibitor tablets (Roche). After addition of the lysis buffer, frozen cell pellets were resuspended using a tissue homogenizer. To reduce the viscosity of the sample, aliquots of the lysate were sonicated on ice using a microtip attached to a Branson sonicator. The sonicated lysate was centrifuged at 100,000 x g for 1hr at 4 °C and filtered through a 0.2 µm filter unit (Corning).\nThe protein was purified using three sequential chromatography steps: Heparin sepharose CL-6B, polyU sepharose 4B, and Hitrap SP sepharose (Pharmacia). The chromatography buffers were identical to the lysis buffer but contained no lysozyme, deoxyribonuclease I, MgCl2 or protease inhibitor and the NaCl concentration of the buffer was adjusted according to the requirements for charging the protein onto the column. Each column was eluted with a NaCl gradient which varied in length from 5-50 column volumes depending on the column type. After the final chromatography step, the resulting purity of the enzyme is >90% based on SDS-PAGE analysis. The enzyme was aliquoted and stored at -80 °C.\nStandard HCV NS5B RdRp enzyme assay. HCV RdRp genotype 1b assays were run in a final volume of 60 µl in 96 well plates (Costar 3912). The assay buffer is composed of 20 mM Hepes, pH 7.5, 2.5 mM KCI, 2.5 mM MgCl2, 1 mM DTT, 1.6 U RNAse inhibitor (Promega N2515), 0.1 mg/ml BSA (Promega R3961), and 2 % glycerol. All compounds were serially diluted (3-fold) in DMSO and diluted further in water such that the final concentration of DMSO in the assay was 2%. HCV RdRp genotype Ib enzyme was used at a final concentration of 28 nM. A polyA template was used at.6 nM, and a biotinylated oligo-dT12 primer was used at 180 nM final concentration. Template was obtained commercially (Amersham 27-4110). Biotinylated primer was prepared by Sigma Genosys. 3H-UTP was used at 0.6 µCi (0.29 µM total UTP). Reactions were initiated by the addition of enzyme, incubated at 30 °C for 60 min, and stopped by adding 25 µl of 50 mM EDTA containing SPA beads (4 µg/µl, Amersham RPNQ 0007). Plates were read on a Packard Top Count NXT after > 1hr incubation at room temperature.\nModified HCV NS5B RdRp enzyme assay. A modified enzyme assay was performed essentially as described for the standard enzyme assay except for the following: The biotinylated oligo dT12 primer was precaptured on streptavidin-coated SPA beads by mixing primer and beads in assay buffer and incubating at room temperature for one hour. Unbound primer was removed after centrifugation. The primer-bound beads were resuspended in 20 mM Hepes buffer, pH 7.5 and used in the assay at final concentrations of 20 nM primer and 0.67 µg/µl beads. Order of addition in the assay: enzyme (14 nM) was added to diluted compound followed by the addition of a mixture of template (0.2 nM), 3H-UTP (0.6 µCi, 0.29 µM), and primer-bound beads, to initiate the reaction; concentrations given are final. Reactions were allowed to proceed for 4 hours at 30° C.\nIC50 values for compounds were determined using seven different [I]. […]"}}}
{"smiles": "COc1ccc2c(c1)C=C(c1c(C(=O)N3CCN(C)CC3)c(C(C)C)nn1C)Cn1c-2c(C2CCCCC2)c2ccc(C(=O)NS(=O)(=O)C(C)C)cc21", "values": [{"measurement": "EC50", "setting": "HCV replicon", "value": "1 to 500", "unit": "nM"}, {"measurement": "IC50", "setting": "HCV NS5B", "value": "1 to 500", "unit": "nM"}]}
{"smiles": "COc1ccc2c(c1)C=C(c1c(C(=O)N3C[C@@H](C)N(C)[C@@H](C)C3)c(C(C)C)nn1C)Cn1c-2c(C2CCCCC2)c2ccc(C(=O)NS(=O)(=O)C(C)C)cc21", "values": [{"measurement": "EC50", "setting": "HCV replicon", "value": "1 to 500", "unit": "nM"}, {"measurement": "IC50", "setting": "HCV NS5B", "value": "1 to 500", "unit": "nM"}]}
{"smiles": "CCn1nc(C)c(C2=Cc3cc(OC)ccc3-c3c(C4CCCCC4)c4ccc(C(=O)NS(=O)(=O)C(C)C)cc4n3C2)c1C(=O)N1CCOCC1", "values": [{"measurement": "EC50", "setting": "HCV replicon", "value": "1 to 500", "unit": "nM"}, {"measurement": "IC50", "setting": "HCV NS5B", "value": "1 to 500", "unit": "nM"}]}
{"smiles": "COc1ccc2c(c1)C=C(c1c(C(=O)N3CCN(C)CC(F)(F)C3)nnn1C(C)C)Cn1c-2c(C2CCCCC2)c2ccc(C(=O)NS(=O)(=O)N(C)C)cc21", "values": [{"measurement": "EC50", "setting": "HCV replicon", "value": "1 to 500", "unit": "nM"}, {"measurement": "IC50", "setting": "HCV NS5B", "value": "1 to 500", "unit": "nM"}]}
